From patent publication US7598258B2, “Quinoline derivatives and quinazoline derivatives inhibiting autophosphorylation of macrophage colony stimulating factor receptor” (Kirin Beer Kabushiki Kaisha, priority 2002, dated 2009) come the findings set out here.

Bounds are passed on as bounds.

The assay deals with T1, Human KDR (Homo sapiens, UniProt P35968).
T1 construct: expressed in transfected cells; host or cells: NIH3T3 cells (mouse fibroblasts)
Description: Inhibition of KDR phosphorylation in human KDR-transfected NIH3T3 cells (ELISA). Type of assay: cell-based. Conditions: for Selection ratio (KDR phosphorylation IC50 / c-fms phosphorylation IC50): class 0-3; for IC50: human KDR-transfected NIH3T3 cells, VEGF 100 ng/ml, ELISA, read-out: KDR phosphorylation 50% inhibitory concentration (IC50). The method, then:
Human KDR-transfected NIH3T3 cells (Sawano A et al., Cell Growth & Differentiation, 7, 213-221 (1996)) were cultured in a DMEM medium containing 10% fetal calf serum (purchased from GIBCO BRL) within a 5% carbon dioxide incubator until 50 to 70% confluent. The harvested cells were seeded into wells, containing the same medium, in a collagen type 1 coat 96-well flat-bottom plate in an amount of 1.5×10^4 per well, and cultured at 37° C. overnight. The medium was replaced with a 0.1% fetal calf serum-containing DMEM medium. The test compound dissolved in dimethyl sulfoxide was added to each well, and the cultivation was continued at 37° C. for additional one hr. A human recombinant vascular endothelial growth factor (hereinafter abbreviated to “VEGF”) was added to a final concentration of 100 ng/ml, followed by stimulation of cells at 37° C. for 2 min. The medium was removed, and the cells were washed with phosphate buffered saline (pH 7.4). A solubilization buffer (50 μl) (20 mM HEPES (pH 7.4), 150 mM NaCl, 0.2% Triton X-100, 10% glycerol, 5 mM sodium orthovanadylate, 5 mM disodium ethylenediaminetetraacetate, and 2 mM Na4P2O7) was then added thereto. The mixture was shaken at 4° C. for 2 hr to prepare a cell extract.
Separately, phosphate buffered saline (50 μl, pH 7.4) containing 5 μg/ml of anti-phospho-tyrosine antibody (PY20; purchased from Transduction Laboratories) was added to a microplate for ELISA (Maxisorp; purchased from NUNC), followed by standing at 4° C. overnight to be immobilized on the wells. After washing of the plate, 300 μl of a blocking solution was added, followed by standing at room temperature for 2 hr to perform blocking. After washing, the whole cell extract was transferred and was allowed to stand at 4° C. overnight. After washing, an anti-KDR antibody (purchased from Santa Cruz Biotechnology) was allowed to react at room temperature for one hr. Further, after washing, a peroxidase-labeled anti-rabbit Ig antibody (purchased from Amersham) was allowed to react at room temperature for one hr. After washing, a chromophoric substrate for peroxidase (purchased from Sumitomo Bakelite Co., Ltd.) was added thereto to initiate a reaction. After a suitable level of color development, a reaction termination solution was added to stop the reaction, and the absorbance at 450 nm was measured with a microplate reader. The KDR phosphorylation activity for each well was determined by presuming the absorbance without the addition of the test compound and with the addition of VEGF to be 100% KDR phosphorylation activity and the absorbance without the addition of the test compound and VEGF to be 0% KDR phosphorylation activity. The concentration of the test compound was varied on several levels, the KDR phosphorylation inhibitory rate was determined for each case, and the concentration of the test compound necessary for inhibiting 50% of KDR phosphorylation (IC50) was calculated.
A general note: An ELISA detects its analyte on a solid surface through an enzyme-linked reagent.

T1 sequence (P35968 20-1356): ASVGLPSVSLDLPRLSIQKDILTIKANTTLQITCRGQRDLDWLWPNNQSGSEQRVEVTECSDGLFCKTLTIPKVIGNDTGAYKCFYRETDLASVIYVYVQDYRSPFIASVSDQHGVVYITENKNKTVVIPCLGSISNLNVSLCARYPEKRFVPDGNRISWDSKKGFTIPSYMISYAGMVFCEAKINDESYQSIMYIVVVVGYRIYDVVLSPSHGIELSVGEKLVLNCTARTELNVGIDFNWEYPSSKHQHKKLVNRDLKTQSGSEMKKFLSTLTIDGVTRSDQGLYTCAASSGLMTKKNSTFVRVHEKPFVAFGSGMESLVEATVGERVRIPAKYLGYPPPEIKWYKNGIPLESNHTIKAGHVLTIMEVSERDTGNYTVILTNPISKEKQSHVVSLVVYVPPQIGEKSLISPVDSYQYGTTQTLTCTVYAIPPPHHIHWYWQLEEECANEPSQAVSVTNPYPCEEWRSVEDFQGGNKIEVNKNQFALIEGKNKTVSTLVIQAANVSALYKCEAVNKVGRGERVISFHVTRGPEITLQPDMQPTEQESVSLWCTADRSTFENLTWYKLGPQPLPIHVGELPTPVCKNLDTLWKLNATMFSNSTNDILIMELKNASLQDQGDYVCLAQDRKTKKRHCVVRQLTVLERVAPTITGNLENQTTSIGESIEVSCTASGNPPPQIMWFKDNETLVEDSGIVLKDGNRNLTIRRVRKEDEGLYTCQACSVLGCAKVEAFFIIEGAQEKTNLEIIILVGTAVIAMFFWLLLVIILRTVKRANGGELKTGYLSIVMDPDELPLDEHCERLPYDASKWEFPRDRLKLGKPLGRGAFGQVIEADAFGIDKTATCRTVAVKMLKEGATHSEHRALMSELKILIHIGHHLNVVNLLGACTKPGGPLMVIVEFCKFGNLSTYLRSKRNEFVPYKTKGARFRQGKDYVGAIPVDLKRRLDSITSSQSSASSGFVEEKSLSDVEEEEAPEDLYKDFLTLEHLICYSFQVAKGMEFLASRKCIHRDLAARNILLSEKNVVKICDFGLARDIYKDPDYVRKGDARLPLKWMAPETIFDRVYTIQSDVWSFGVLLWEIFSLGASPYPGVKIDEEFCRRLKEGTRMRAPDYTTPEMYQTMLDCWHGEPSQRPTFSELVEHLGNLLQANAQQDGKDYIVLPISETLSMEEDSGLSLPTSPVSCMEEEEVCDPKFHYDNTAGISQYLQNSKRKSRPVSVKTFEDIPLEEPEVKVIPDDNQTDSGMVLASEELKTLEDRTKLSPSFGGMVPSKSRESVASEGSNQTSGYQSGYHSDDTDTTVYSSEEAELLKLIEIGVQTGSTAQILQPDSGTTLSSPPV

On to `COc1cc2nccc(Oc3ccc(NC(=O)NC(C)c4ccc(F)cc4)cc3Cl)c2cc1OC` (stereo not drawn) [Example 10, N-{3-Chloro-4-[(6,7-dimethoxy-4-quinolyl)oxy]phenyl}-N′-[1-(4-fluorophenyl)ethyl]urea], for which the “Selection ratio (KDR phosphorylation IC50 / c-fms phosphorylation IC50)” value was 0 (KDR phosphorylation 50% inhibitory concentration [μM]/c-fms phosphorylation 50% inhibitory concentration [μM] was less than 5) and the IC50 came to 0.003 µM.

Consider `COc1cc2nccc(Oc3cc(C)c(NC(=O)N[C@H](C)c4cccc(Br)c4)cc3C)c2cc1OC` [Example 56, N-[(1R)-1-(3-Bromophenyl)ethyl]-N′-{4-[(6,7-dimethoxy-4-quinolyl)oxy]-2,5-dimethylphenyl}urea], for which the “Selection ratio (KDR phosphorylation IC50 / c-fms phosphorylation IC50)” value is 0 (KDR phosphorylation 50% inhibitory concentration [μM]/c-fms phosphorylation 50% inhibitory concentration [μM] was less than 5) and the IC50 is 0.0096 µM.

For the compound `COc1cc2nccc(Oc3cc(C)c(NC(=O)N[C@@H](C)c4ccc(F)cc4)cc3C)c2cc1OC` [Example 8, N-{4-[(6,7-Dimethoxy-4-quinolyl)oxy]-2,5-dimethylphenyl}-N′-[(1S)-1-(4-fluorophenyl)ethyl]urea], the “Selection ratio (KDR phosphorylation IC50 / c-fms phosphorylation IC50)” value is listed as 2 (when the value was 10 or more) and the IC50 was determined as 0.39 µM.

Regarding `COc1cc2nccc(Oc3ccc(NC(=O)NC(C)c4ccc(F)cc4)c(C)c3C)c2cc1OC` (stereo not drawn) [Example 25, N-{4-[(6,7-Dimethoxy-4-quinolyl)oxy]-2,3-dimethylphenyl}-N′-[1-(4-fluorophenyl)ethyl]urea], the “Selection ratio (KDR phosphorylation IC50 / c-fms phosphorylation IC50)” value is 0 (KDR phosphorylation 50% inhibitory concentration [μM]/c-fms phosphorylation 50% inhibitory concentration [μM] was less than 5) and the IC50 stood at 0.0035 µM.

As to `COc1cc2nccc(Oc3ccc(NC(=O)NC(C)c4ccc(F)cc4)c(F)c3)c2cc1OC` (stereo not drawn) [Example 28, N-{4-[(6,7-Dimethoxy-4-quinolyl)oxy]-2-fluorophenyl}-N′-[1-(4-fluorophenyl)ethyl]urea], the “Selection ratio (KDR phosphorylation IC50 / c-fms phosphorylation IC50)” value is 0 (KDR phosphorylation 50% inhibitory concentration [μM]/c-fms phosphorylation 50% inhibitory concentration [μM] was less than 5) and the IC50 was below 0.001 µM.

On to `COc1cc(Oc2ccnc3cc(OC)c(OC)cc23)ccc1NC(=O)NC(C)c1ncc(C)s1` (stereo not drawn) [Example 105, N-{4-[(6,7-Dimethoxy-4-quinolyl)oxy]-2-methoxyphenyl}-N′-[1-(5-methyl-1,3-thiazol-2-yl)ethyl]urea], for which the “Selection ratio (KDR phosphorylation IC50 / c-fms phosphorylation IC50)” value is given as 2 (when the value was 10 or more) and the IC50 worked out at 0.31 µM.

Take `COc1cc2nccc(Oc3ccc(NC(=O)NC(C)c4nc(C)cs4)c(C(F)(F)F)c3)c2cc1OC` (stereo not drawn) [Example 92, N-[4-[(6,7-Dimethoxy-4-quinolyl)oxy]-2-(trifluoromethyl)phenyl]-N′-[1-(4-methyl-1,3-thiazol-2-yl)ethyl]urea]: the “Selection ratio (KDR phosphorylation IC50 / c-fms phosphorylation IC50)” value is 0 (KDR phosphorylation 50% inhibitory concentration [μM]/c-fms phosphorylation 50% inhibitory concentration [μM] was less than 5) and the IC50 was found to be 0.0043 µM.

`COc1cc2nccc(Oc3ccc(NC(=O)N[C@@H](C)c4ccccc4OC)cc3)c2cc1OC` [Example 51, N-{4-[(6,7-Dimethoxy-4-quinolyl)oxy]phenyl}-N′-[(1S)-1-(2-methoxyphenyl)ethyl]urea]: the “Selection ratio (KDR phosphorylation IC50 / c-fms phosphorylation IC50)” value is on record as 1 (when the value was 5 or more) and the IC50 was 0.0382 µM.

As to `COc1cc2nccc(Oc3ccc(NC(=O)NC(C)c4nc(C)cs4)cc3F)c2cc1OC` (stereo not drawn) [Example 89, N-{4-[(6,7-Dimethoxy-4-quinolyl)oxy]-3-fluorophenyl}-N′-[1-(4-methyl-1,3-thiazol-2-yl)ethyl]urea], the “Selection ratio (KDR phosphorylation IC50 / c-fms phosphorylation IC50)” value is 1 (when the value was 5 or more) and the IC50 turned out to be 0.0174 µM.

Regarding `COc1cc2nccc(Oc3ccc(NC(=O)N[C@H](C)c4ccc(F)cc4)cc3F)c2cc1OC` [Example 33, N-{4-[(6,7-Dimethoxy-4-quinolyl)oxy]-3-fluorophenyl}-N′-[(1R)-1-(4-fluorophenyl)ethyl]urea], the “Selection ratio (KDR phosphorylation IC50 / c-fms phosphorylation IC50)” value was 0 (KDR phosphorylation 50% inhibitory concentration [μM]/c-fms phosphorylation 50% inhibitory concentration [μM] was less than 5) and the IC50 is below 0.001 µM.

On to `COc1cc2nccc(Oc3ccc(NC(=O)N[C@@H](C)c4ccc(F)cc4)cc3F)c2cc1OC` [Example 32, N-{4-[(6,7-Dimethoxy-4-quinolyl)oxy]-3-fluorophenyl}-N′-[(1S)-1-(4-fluorophenyl)ethyl]urea], for which the “Selection ratio (KDR phosphorylation IC50 / c-fms phosphorylation IC50)” value was 1 (when the value was 5 or more) and the IC50 came out at 0.0294 µM.

Regarding `COc1cc2nccc(Oc3ccc(NC(=O)N[C@H](C)c4ccc(F)cc4)c(Cl)c3)c2cc1OC` [Example 6, N-{2-Chloro-4-[(6,7-dimethoxy-4-quinolyl)oxy]phenyl}-N′-[(1R)-1-(4-fluorophenyl)ethyl]urea], the “Selection ratio (KDR phosphorylation IC50 / c-fms phosphorylation IC50)” value is 0 (KDR phosphorylation 50% inhibitory concentration [μM]/c-fms phosphorylation 50% inhibitory concentration [μM] was less than 5) and the IC50 turned out to be 0.0018 µM.

On to `COc1cc2nccc(Oc3cc(C)c(NC(=O)NC(C)c4nc(C)cs4)cc3C)c2cc1OC` (stereo not drawn) [Example 93, N-{4-[(6,7-Dimethoxy-4-quinolyl)oxy]-2,5-dimethylphenyl}-N′-[1-(4-methyl-1,3-thiazol-2-yl)ethyl]urea], for which the “Selection ratio (KDR phosphorylation IC50 / c-fms phosphorylation IC50)” value is 1 (when the value was 5 or more) and the IC50 amounted to 0.268 µM.

Consider `COc1cc2nccc(Oc3ccc(NC(=O)N[C@@H](C)c4ccc(F)cc4)c(Cl)c3)c2cc1OC` [Example 5, N-{2-Chloro-4-[(6,7-dimethoxy-4-quinolyl)oxy]phenyl}-N′-[(1S)-1-(4-fluorophenyl)ethyl]urea], for which the “Selection ratio (KDR phosphorylation IC50 / c-fms phosphorylation IC50)” value was 1 (when the value was 5 or more) and the IC50 was 0.0214 µM.

Turning to `COc1cc2c(Oc3ccc(NC(=O)NC(C)c4ccc(F)c(F)c4)cc3F)ccnc2cc1OCCCN1CCOCC1` (stereo not drawn) [Example 65, N-[1-(3,4-Difluorophenyl)ethyl]-N′-(3-fluoro-4-{[6-methoxy-7-(3-morpholinopropoxy)-4-quinolyl]oxy}phenyl)urea], the “Selection ratio (KDR phosphorylation IC50 / c-fms phosphorylation IC50)” value was 0 (KDR phosphorylation 50% inhibitory concentration [μM]/c-fms phosphorylation 50% inhibitory concentration [μM] was less than 5) and the IC50 came to 0.0319 µM.

Regarding `COc1cc2c(Oc3ccc(NC(=O)NC(C)c4ccc(F)cc4F)cc3F)ccnc2cc1OCCCN1CCOCC1` (stereo not drawn) [Example 66, N-[1-(2,4-Difluorophenyl)ethyl]-N′-(3-fluoro-4-{[6-methoxy-7-(3-morpholinopropoxy)-4-quinolyl]oxy}phenyl)urea], the “Selection ratio (KDR phosphorylation IC50 / c-fms phosphorylation IC50)” value is 0 (KDR phosphorylation 50% inhibitory concentration [μM]/c-fms phosphorylation 50% inhibitory concentration [μM] was less than 5) and the IC50 came out at 0.0165 µM.

`COc1cc2c(Oc3ccc(NC(=O)NC(C)c4ccc(F)cc4)cc3F)ccnc2cc1OCCCN1CCOCC1` (stereo not drawn) [Example 64, N-(3-Fluoro-4-{[6-methoxy-7-(3-morpholinopropoxy)-4-quinolyl]oxy}phenyl)-N′-[1-(4-fluorophenyl)ethyl]urea]: the “Selection ratio (KDR phosphorylation IC50 / c-fms phosphorylation IC50)” value was 0 (KDR phosphorylation 50% inhibitory concentration [μM]/c-fms phosphorylation 50% inhibitory concentration [μM] was less than 5) and the IC50 was determined as 0.0098 µM.

As for `COc1cc(Oc2ccnc3cc(OC)c(OC)cc23)ccc1NC(=O)N[C@@H](C)c1ccc(F)cc1` [Example 17, N-{4-[(6,7-Dimethoxy-4-quinolyl)oxy]-2-methoxyphenyl}-N′-[(1S)-1-(4-fluorophenyl)ethyl]urea], the “Selection ratio (KDR phosphorylation IC50 / c-fms phosphorylation IC50)” value is 3 (when the value was 50 or more) and the IC50 is 0.315 µM. Moreover, the “selective inhibition of c-fms rather than KDR (in words)” value (in vitro) is given as “selectively inhibit c-fms rather than KDR”.

For `COc1cc2nccc(Oc3ccc(NC(=O)N[C@@H](C)c4nccs4)c(C(F)(F)F)c3)c2cc1OC` [Example 84, N-[4-[(6,7-Dimethoxy-4-quinolyl)oxy]-2-(trifluoromethyl)phenyl]-N′-[(1S)-1-(1,3-thiazol-2-yl)ethyl]urea], the “Selection ratio (KDR phosphorylation IC50 / c-fms phosphorylation IC50)” value was 3 (when the value was 50 or more) and the IC50 worked out at 0.661 µM.
